Patent publication US20190352358A1, “COMPOUNDS, COMPOSITIONS AND USES THEREOF FOR IMPROVEMENT OF BONE DISORDERS” (ALIZE PHARMA III SAS, priority 2017, published 2019)
Non-standard residues stand in square brackets, D forms with d. Residues, ends and D or L forms follow the SMILES beside them. Primed or numbered codes have the meaning given here. No end group written: not given here. *: point of attachment. PEG20′ = PEG20 chain (pegylated), attached via a cysteine; C16 diacid = O=C(O)CCCCCCCCCCCCCCC(=O)*; Arachidoyl = CCCCCCCCCCCCCCCCCCCC(=O)*; Stearoyl = CCCCCCCCCCCCCCCCCC(=O)*; Palmitoyl = CCCCCCCCCCCCCCCC(=O)*

Experiments:
[1] = system: MC-3T3 E1 clone 4 (CL4) osteoblast cells; experiment: Osteocalcin expression during in vitro osteoblast differentiation, PEGylated analogs (Example 6); type: cell-based; conditions: Table 17; test peptide 2 μg/mL; 18-21 day interval
Protocol: (§1) Each peptide was tested in a biologic assay measuring its ability to stimulate differentiation of osteoblast cells over a 18-21 day interval as assessed by the stimulation of osteocalcin protein synthesis. MC-3T3 E1 clone 4 (CL4) osteoblast cells were obtained from ATCC (Manassas, Va., USA). Cells were cultured in α-MEM containing 10% fetal bovine serum (FBS; Thermo Fisher Scientific, Pittsburgh, Pa., USA). After confluency, culture medium was changed to differentiation medium (DM), which contained 10% FBS plus 50 μg/mL ascorbic acid and 4 mM β-glycerol phosphate, with or without a test peptide (2 μg/mL). Fresh DM, with or without test peptide, was applied every 72 hours. The cell monolayers were lysed in a modified radioimmunoprecipitation assay (RIPA) buffer. Total cellular protein in the lysates was determined using BCA (Thermo Fisher Scientific, Rockford, Ill., USA). Cell proteins are separated on SD S-PAGE gel and transferred on PVDF membrane for analysis. Osteocalcin detection was performed using anti-osteocalcin antibody at 1:200 dilution (Santa Cruz Biotechnology, Inc, Santa Cruz, Calif., USA) and visualized using enhanced chemiluminescence (Thermo Fisher Scientific, Rockford, Ill., USA).

[2] = system: MC-3T3 E1 clone 4 (CL4) osteoblast cells; experiment: Osteocalcin expression during in vitro osteoblast differentiation, acylated and cyclic analogs (Example 7); type: cell-based; conditions: for Fold increase vs DM ± SE: Table 18, test peptide 1 μg/L, 18-21 day interval
Protocol: as §1, with “Each acylated” for “Each”, “(1 μg/L).” for “(2 μg/mL).”, “SDS-PAGE” for “SD S-PAGE”
In a separate experiment, the effect of cyclization was examined on of the HBD1 (3-11) peptide. The cyclic HBD1 (3-11) was synthetized and tested on the in vitro osteoblast differentiation assay.

[3] = Pharmacokinetics in male Sprague Dawley rats after intravenous and subcutaneous injection (Example 10); type: in vivo; conditions: 1 μmol net peptide/kg, rat
Protocol: The peptides were reconstituted in saline (0.9% NaCl). Three male Sprague Dawley rats were used per group. Intravenous doses were administered into a lateral tail vein at the dose of 1 μmol net peptide/kg. Subcutaneous doses were administered into the right flank of each animal, also at the dose of 1 μmol net peptide/kg. Following dosing, serial whole blood samples (ca. 0.25 mL) were collected from a lateral tail vein into K2EDTA treated containers. Following each blood sample collection, samples were placed into a cooling block at 4° C. Samples were collected prior to dosing then at 2, 5, 15 and 30 minutes then 1, 2, 4, 6 and 8 and 24 hours post dose for intravenous injection and at 15 and 30 minutes then 1, 2, 4, 6, 8 and 24 hours post dose for subcutaneous injection.
Blood samples were centrifuged at 10000×g for 2 minutes at 4° C. and resultant plasma aspirated off into clean fully, labelled tubes. Plasma samples were snap frozen following aspiration then stored at −80° C. Peptides were extracted and analyzed as described in Example 9. The limits of quantification of these methods were 0.001 nmol/mL for cyclic HBD1 (3-11) and HBD1 (3-11) and 0.003 nmol/mL for HBD1 (1-13). All values below these limits of quantification were considered as zero.

[4] = system: MC-3T3 E1 clone 4 (CL4) osteoblast cells; experiment: Osteocalcin expression during in vitro osteoblast differentiation, various doses of analogs (Example 8); type: cell-based; conditions: Table 19, 18 day interval
Protocol: The peptides were tested at different concentrations in a biologic assay measuring their ability to stimulate differentiation of osteoblast cells over a 18 day interval as assessed by the stimulation of osteocalcin protein synthesis. MC-3T3 E1 clone 4 (CL4) osteoblast cells were obtained from ATCC (Manassas, Va., USA). Cells were cultured in α-MEM containing 10% fetal bovine serum (FBS; Thermo Fisher Scientific, Pittsburgh, Pa., USA). After confluency, culture medium was changed to differentiation medium (DM), which contained 10% FBS plus 50 μg/mL ascorbic acid and 4 mM β-glycerol phosphate, with or without an ascending dose of the peptide. Fresh DM, with or without the peptide, was applied every 72 hours. The cell monolayers were lysed in a modified radioimmunoprecipitation assay (RIPA) buffer. Total cellular protein in the lysates was determined using BCA (Thermo Fisher Scientific, Rockford, Ill., USA). Cell proteins are separated on SDS-PAGE gel and transferred on PVDF membrane for analysis. Osteocalcin detection was performed using anti-osteocalcin antibody at 1:200 dilution (Santa Cruz Biotechnology, Inc, Santa Cruz, Calif., USA) and visualized using enhanced chemiluminescence (Thermo Fisher Scientific, Rockford, Ill., USA).

[5] = Pharmacokinetics of acylated analogs in male Sprague Dawley rats after subcutaneous injection (Example 11); type: in vivo; design: AUC(0-t): concentration or dose not given beside the values; conditions: sc, rat, Table 24
Protocol: The peptides were reconstituted in saline (0.9% NaCl). Three male Sprague Dawley rats (approximately 6 weeks of age) were used per group. Subcutaneous doses were administered into the right flank of each animal […]. Following dosing, serial whole blood samples (ca. 0.3 mL) were collected from retro-orbital sinus into K2EDTA treated containers. Following each blood sample collection, samples were placed into a cooling block at 4° C. Samples were collected prior to dosing then at 15 and 30 minutes then 1, 2, 4, 6, 8 and 24 hours post dose for subcutaneous injection. Blood samples were centrifuged at 3500×rpm for 10 minutes at 4° C. and resultant plasma aspirated off into clean fully, labelled tubes. Plasma samples were snap frozen following aspiration then stored at −80° C. The peptides were extracted with acetonitrile:water (75:25, v/v) and analyzed using developed LC-MS/MS methods as described in Example 9. The limits of detection of these methods are 0.003 nmol/mL for HBD1 (1-13) with palmitic acid at the N-terminus (C16:0), 0.0008 nmol/mL for HBD1 (3-11) with palmitic acid at the N-terminus (C16:0), 0.0070 nmol/mL for HBD1 (3-11) with stearic acid at the N-terminus (C18:0), and 0.0015 nmol/mL for HBD1 (3-11) with myristic acid at the N-terminus (C14:0), HBD1 (3-11) with arachidic acid at the N-terminus (C20:0), HBD1 (3-11) with palmitic diacid at the N-terminus (C16:0-diacid), HBD1 (3-11) with palmitic acid at the C-terminus (C16:0). All values below these limits of quantification were considered as zero.

[6] = Stability of HBD1 fragments in human plasma; type: in vitro ADME
Protocol: The peptides were spiked at 1 μg/mL (peptide backbone) into pre-warmed human K2EDTA plasma (at 37° C.) and incubated for up to 48 hours. Aliquots of plasma were extracted at specific time points (0, 24 and 48 hours post spike). Extraction was performed with acetonitrile:water (75:25, v/v) for HBD1 (1-13), HBD1 (1-13) with palmitic acid at the N-terminus (C16:0), HBD1 (3-11) with palmitic acid at the N-terminus (C16:0)) and HBD1 (3-11) with stearic acid at the N-terminus (C18:0) or with acetonitrile:water:formic acid (75:25:0.1, v/v/v) for HBD1 (3-11) and cyclic HBD1 (3-11). The peptides were analyzed using developed LC (C18 reverse phase column)—positive ion electrospray MS/MS methods specific to each peptide. The peak area at each time point was expressed as a percentage of the value obtained for the t=0 minutes time point.

[7] = male, Sprague Dawley, plasma, iv
[8] = male, Sprague Dawley, plasma, sc

Compound	AUC(0-t) ([5]; male, Sprague Dawley, plasma)	Cmax ([5]; male, Sprague Dawley, plasma)	Tmax ([5]; male, Sprague Dawley, plasma)	Tlast (last time point with detectable peptide) [5]	Fold increase vs SEQ ID NO: 1 ± SE [1]	Fold increase vs DM ± SE [2]	other results
63 ([PEG20′]CKHHLGLEEPKKLR) [compound 63]	–	–	–	–	1.4 ± 0.3 fold	–	–
64 (KHHLGLEEPKKLR; not fully specified; MOD_RES (13)..(13) Pegylated) [compound 64]	–	–	–	–	2.2 ± 0.4 fold	–	–
65 ([PEG20′]CHHLGLEEPKK) [compound 65]	–	–	–	–	1.4 ± 0.1 fold	–	–
66 (HHLGLEEPKK; not fully specified; MOD_RES (10)..(10) Pegylated) [compound 66]	–	–	–	–	2.2 ± 0.2 fold	–	–
67 ([PEG20′]CHLGLEEPKK) [compound 67]	–	–	–	–	1.9 ± 0.2 fold	–	–
CC(C)C[C@@H]1NC(=O)CNC(=O)[C@H](CC(C)C)NC(=O)[C@H](Cc2c[nH]cn2)NC(=O)[C@H](CCCCN)NC(=O)[C@H](CCCCN)NC(=O)[C@@H]2CCCN2C(=O)[C@H](CCC(=O)O)NC(=O)[C@H](CCC(=O)O)NC1=O [SEQ ID NO: 77, Cyclic(HLGLEEPKK)] (cyclo(EEPKKHLGL))	–	–	–	–	–	–	in vitro biological activity of acylated or cyclic peptides vs parent peptides (in words) ([2]; text on Table 18 and separate experiment): did not appear to change the in vitro biological activity; Tlast (last time point with detectable peptide) ([3]; iv, listed as Cyclic HBD1 (3-11)): 8 h; bioavailability ([3]; male, Sprague Dawley, plasma, subcutaneous, sc vs iv, read-out: F (bioavailability)): 48%; AUC(0-t) [3, 7]: 2.09 µM·h; Cmax [3, 7]: 5720 nM; Tmax [3, 7]: 1.98 min; AUC(0-t) [3, 8]: 0.99 µM·h; Cmax [3, 8]: 1060 nM; Tmax [3, 8]: 15 min; Tlast (last time point with detectable peptide) ([3]; sc, listed as Cyclic HBD1 (3-11)): 4 h; Tlast (last time point with detectable peptide) ([3]; sc, listed as cyclic HBD1 (3-11)): ≤ 4 h

Continued, in another order:

AUC(0-t) ([5]; male, Sprague Dawley, plasma)	Cmax ([5]; male, Sprague Dawley, plasma)	Tmax ([5]; male, Sprague Dawley, plasma)	Tlast (last time point with detectable peptide) [5]	Compound	Fold increase vs SEQ ID NO: 1 ± SE [1]	Fold increase vs DM ± SE [2]	other results
4.81 µM·h	540 nM	240 min	8 h	CCCCCCCCCCCCCCCCCC(=O)N[C@@H](Cc1c[nH]cn1)C(=O)N[C@@H](CC(C)C)C(=O)NCC(=O)N[C@@H](CC(C)C)C(=O)N[C@@H](CCC(=O)O)C(=O)N[C@@H](CCC(=O)O)C(=O)N1CCC[C@H]1C(=O)N[C@@H](CCCCN)C(=O)N[C@@H](CCCCN)C(=O)O [compound 73] (Stearoyl-HLGLEEPKK-OH)	–	2.93 ± 0.16 fold	Fold increase vs DM ± SD ([4]; dose 1.0 μM): 3.46 ± 0.47 fold; Fold increase vs DM ± SD ([4]; dose 2.0 μM): 4.48 ± 0.07 fold; Fold increase vs DM ± SD ([4]; dose 3.0 μM): 5.66 ± 0.45 fold; stability in human plasma (in words) ([6]; 24 and 48 hours incubation at 37° C.): similar; remaining at 24 h, 1 μg/mL ([6]; human, human K2EDTA plasma, spiked at 1 μg/mL, 37° C., 24 hours, read-out: Remaining parent peptide in human plasma 24 hours post spike): 89%; remaining at 48 h, 1 μg/mL ([6]; human, human K2EDTA plasma, spiked at 1 μg/mL, 37° C., 48 hours, read-out: Remaining parent peptide in human plasma 48 hours post spike): 91%
2.58 µM·h	250 nM	120 min	8 h	CCCCCCCCCCCCCCCCCCCC(=O)N[C@@H](Cc1c[nH]cn1)C(=O)N[C@@H](CC(C)C)C(=O)NCC(=O)N[C@@H](CC(C)C)C(=O)N[C@@H](CCC(=O)O)C(=O)N[C@@H](CCC(=O)O)C(=O)N1CCC[C@H]1C(=O)N[C@@H](CCCCN)C(=O)N[C@@H](CCCCN)C(=O)O [compound 74] (Arachidoyl-HLGLEEPKK-OH)	–	5.05 ± 0.95 fold	–
1.14 µM·h	580 nM	15 min	8 h	CC(C)C[C@H](NC(=O)CNC(=O)[C@H](CC(C)C)NC(=O)[C@H](Cc1c[nH]cn1)NC(=O)CCCCCCCCCCCCCCC(=O)O)C(=O)N[C@@H](CCC(=O)O)C(=O)N[C@@H](CCC(=O)O)C(=O)N1CCC[C@H]1C(=O)N[C@@H](CCCCN)C(=O)N[C@@H](CCCCN)C(=O)O [compound 75] ({C16 diacid}-HLGLEEPKK-OH; C-terminus assumed)	–	3.39 ± 0.19 fold	–
–	–	–	8 h	CCCCCCCCCCCCCCCC(=O)NCCCC[C@H](NC(=O)[C@H](CCCCN)NC(=O)[C@@H]1CCCN1C(=O)[C@H](CCC(=O)O)NC(=O)[C@H](CCC(=O)O)NC(=O)[C@H](CC(C)C)NC(=O)CNC(=O)[C@H](CC(C)C)NC(=O)[C@@H](N)Cc1c[nH]cn1)C(=O)O [compound 76] (H-HLGLEEPKK(Palmitoyl)-OH; N-terminus and C-terminus assumed)	–	3.18 ± 0.31 fold	AUC(0-t) ([5]; in vivo): 1.09 µM·h; Cmax ([5]; in vivo): 500 nM; Tmax ([5]; in vivo): 15 min
